Tested on: interleukin 8 (IL-8)
Assay: IL-8 ELISA on supernatant of TNF alpha-challenged primary epidermal keratinocytes pre-treated with actives
Type: cell-based, human
Conditions: 24 h pre-treatment, then 10 ng/ml TNF alpha 24 h
Method: An in-vitro model has been developed to investigate the impact of an inflammatory stimulus on epidmeral keratinocytes, in which: • a. Cells are grown in 24-well (2.0 cm^2) plates. • b. The cells are pre-treated with active ingredient of interest for 24 hours then challenged with an inflammatory stimulus, 10 ng/ml tumour necrosis factor alpha (TNFa) in addition to the active ingredient, for a further 24 hours. • c. Cell culture supernatant and cell lysates were harvested at 24 hours (t24) post-TNFa treatment. • d. All cell culture supernatant was assayed for IL-8 as a measure of inflammatory response and cell culture lysate was assayed for total protein (BCA), as a measure of cytotoxicity.
Primary human epidermal keratinocyte cells were cultured and passaged in fully supplemented KGM-Gold media (Lonza) with 70 μM calcium added. Cells were routinely plated out in 24-well tissue culture dishes, at a seeding density of ˜50,000 cells/well in 1 ml medium/well for 24 hours, and incubated at 37° C. in 5% CO2.
Test solutions were prepared in KGM-Gold media without supplemented hydrocortisone and antibiotic. Media was removed from the cells and test solutions were added for 24 hours. The epidermal keratinocytes were then stimulated with an inflammatory challenge for 24 hours using 10 ng/ml TNFa in the presence of the test solutions. The treated supernatant (cell culture supernatant) was removed and stored at −20° C. prior to IL-8 analysis.
The epidermal keratinocytes were washed with 1 ml of Dulbecco's phosphated buffer solution (PBS) and 250 μl of ice cold lysis buffer (1% NP-40, 0.1% sodium deoxycholate, 0.1% sodium dodecyl sulphate, 6 mM sodium chloride and 0.05 M Tris at pH 7.6) containing protease inhibitor cocktail (Roche, Complete™ mini tablets 1 836 170) was added. The lysates were clarified by scraping the samples with a 1 ml syringe plunger and passing through an Acrowell™ filter plate (Pall) using an Acroprep™ vacuum manifold (Pall) into a 96 well microwell plate (Sterilin). The clarified lysates were stored at −20° C. until total protein estimation.
The total protein concentration of each clarified cell lysate was measured using the Pierce BCA protein assay kit so that the response to effect of the test substances could be normalised to ug protein. A set of eight standard solutions ranging from 0 to 1200 μg/ml protein was prepared from the supplied 2 mg/ml bovine serum albumin (BSA) stock solution. 10 μl of standard or cell lysate was added to duplicate wells of a flat-bottomed 96-well plate. The reagent solution was prepared according to the kit instructions from 50 parts reagent A and 1 part reagent B. 200 μl of the final reagent was added to each well. The plate was mixed, covered and incubated at 37° C. for 30 minutes and absorbance read at 562 nm. A protein standard curve was constructed and used to determine the protein concentration of each cell lysate.
The IL-8 concentration of each cell culture supernatant was assayed using the DuoSet Human IL-8 ELISA assay (R&D Systems DY208) according to the manufacturer's instructions. The IL-8 capture antibody was bound to the microtitre plate (Greiner) overnight at room temperature in phosphate buffered saline and removed by washing three times was wash buffer (0.05% Tween 20 in PBS) on an automatic plate washer. The plate was blocked with 300 μl of 1% bovine serum albumin (BSA) in phosphate buffered saline for 1 hour at room temperature and washed 3 times in wash buffer. Seven IL-8 standards were prepared in reagent diluent (0.1% BSA, 0.05% Tween 20 in PBS) at concentrations ranging from […]. 100 μl of cell culture supernatant or standard was added to duplicate wells and incubated at room temperature for 2 hours. The plate was washed 3 times with wash buffer before 100 μl of IL-8 detection antibody diluted in reagent diluent was added and incubated for 2 hours at room temperature. […]

SMILES	IL-8 (pg/μg protein) (sterol alone 1 uM)	IL-8 (pg/μg protein) (sterol alone 5 uM)	IL-8 (pg/μg protein) (sterol alone 10 uM)	IL-8 (pg/μg protein) (myricetin alone 0.5 ug/ml)	IL-8 (pg/μg protein) (myricetin alone 1 ug/ml)	IL-8 (pg/μg protein) (myricetin alone 2.5 ug/ml)
CC(C)[C@@H](C)/C=C/[C@@H](C)[C@H]1CC[C@H]2[C@@H]3CC=C4C[C@@H](O)CC[C@]4(C)[C@H]3CC[C@]12C [Brassicasterol]	3.394	4.448	4.862	–	–	–
CC(C)=CCC[C@@H](C)[C@H]1CC[C@H]2[C@@H]3CC=C4C[C@@H](O)CC[C@]4(C)[C@H]3CC[C@]12C [Desmosterol]	4.756	4.799	4.711	–	–	–
O=c1c(O)c(-c2cc(O)c(O)c(O)c2)oc2cc(O)cc(O)c12 [Myricetin]	–	–	–	3.874	2.741	1.784
CC[C@H](/C=C/[C@@H](C)[C@H]1CC[C@H]2[C@@H]3CC=C4C[C@@H](O)CC[C@]4(C)[C@H]3CC[C@]12C)C(C)C [Stigmasterol]	4.638	3.87	4.964	–	–	–

From patent US10406091B2, “Skin anti-ageing composition” (Conopco, Inc., priority 2011, dated 2019)
